Test results reported in ChEMBL document CHEMBL3352071, “Benzimidazoles: novel mycobacterial gyrase inhibitors from scaffold morphing” (ACS Med Chem Lett, 2014).
≈ marks a conversion by molar mass, not a printed value.

Tests used:
Assay type in all cases: functional
[1] = system: Mycobacterium tuberculosis; assay: Antimicrobial activity against moxicillin resistant Mycobacterium tuberculosis H37Rv ATCC 27294 containing DNA gyrase G88N mutant
[2] = system: Mycobacterium tuberculosis; assay: Antimicrobial activity against 5-(((3S,4R)-3-fluoro-1-(2-(7-methoxy-2-oxo-1,5-naphthyridin-1(2H)-yl)ethyl)piperidin-4-ylamino)methyl)-2-methylnicotinonitrile resistant Mycobacterium tuberculosis H37Rv ATCC 27294 containing DNA gyrase D89N mutant
[3] = system: Mycobacterium tuberculosis; assay: Antimicrobial activity against 2-oxo-1-(2-(4-((3-oxo-3,4-dihydro-2H-pyrido[3,2-b][1,4]oxazin-6-yl)methylamino)piperidin-1-yl)ethyl)-1,2-dihydroquinoline-7-carbonitrile resistant Mycobacterium tuberculosis H37Rv ATCC 27294 containing DNA gyrase A74V mutant

| SMILES | MIC [1] | MIC [2] | MIC [3] |
| --- | --- | --- | --- |
| O=C(O)c1cn(C2CC2)c2cc(N3CCNCC3)c(F)cc2c1=O [CIPROFLOXACIN] | 8 µM (≈ 2.65 µg/mL) | 16 µM (≈ 5.3 µg/mL) | 0.5 µM (≈ 0.166 µg/mL) |
| COc1cnc2ccc(=O)n(CCN3CCC(c4nc5cc(C#N)c(C)cc5[nH]4)CC3)c2c1 | 0.78 µM (≈ 0.345 µg/mL) | 100 µM (≈ 44.3 µg/mL) | >100 µM |
| COc1cnc2ccc(=O)n(CCN3CCC(c4nc5cc(C(F)(F)F)ccc5[nH]4)CC3)c2c1 | 0.78 µM (≈ 0.368 µg/mL) | 25 µM (≈ 11.8 µg/mL) | 50 µM (≈ 23.6 µg/mL) |
| COc1c(N2C[C@@H]3CCCN[C@@H]3C2)c(F)cc2c(=O)c(C(=O)O)cn(C3CC3)c12 [MOXIFLOXACIN] | 4 µM (≈ 1.61 µg/mL) | 2 µM (≈ 0.803 µg/mL) | 0.25 µM (≈ 0.1 µg/mL) |
| NNC(=O)c1ccncc1 [ISONIAZID] | 0.06 µM (≈ 0.00823 µg/mL) | 0.03 µM (≈ 0.00411 µg/mL) | 0.06 µM (≈ 0.00823 µg/mL) |
| O=c1ccc2ncc(F)cc2n1CCN1CCC(NCc2ccc(C(F)(F)F)nc2)CC1 | <0.19 µM | >100 µM | 2 µM (≈ 0.899 µg/mL) |
| N#Cc1ccc2ccc(=O)n(CCN3CCC(NCc4ccc5c(n4)NC(=O)CO5)CC3)c2c1 | <0.19 µM | >100 µM | 4 µM (≈ 1.83 µg/mL) |
| CO[C@H]1/C=C/O[C@@]2(C)Oc3c(C)c(O)c4c(O)c(c(/C=N/N5CCN(C)CC5)c(O)c4c3C2=O)NC(=O)/C(C)=C\C=C\[C@H](C)[C@H](O)[C@@H](C)[C@@H](O)[C@@H](C)[C@H](OC(C)=O)[C@@H]1C [RIFAMPIN] | 0.008 µM (≈ 0.00658 µg/mL) |  | 0.008 µM (≈ 0.00658 µg/mL) |
| NS(=O)(=O)c1ccc(Oc2cnc3ccc(=O)n(CCN4CCC(c5nc6cc(C(F)(F)F)ccc6[nH]5)CC4)c3c2)cc1 | 0.39 µM (≈ 0.239 µg/mL) | 12.5 µM (≈ 7.66 µg/mL) | 25 µM (≈ 15.3 µg/mL) |
| COc1cnc2ccc(=O)n(CCN3CCC(c4nc5cc(Cl)c(F)cc5[nH]4)CC3)c2c1 | 0.06 µM (≈ 0.0274 µg/mL) | 25 µM (≈ 11.4 µg/mL) | 100 µM (≈ 45.6 µg/mL) |
| COc1cnc2ccc(=O)n(CCN3CCN(c4nc5cc(C#N)c(C)cc5[nH]4)CC3)c2c1 | 1.56 µM (≈ 0.692 µg/mL) | 100 µM (≈ 44.4 µg/mL) | >100 µM |
